# From patent US6358885B1, “Substituted phenylheterocyclic herbicides” (Mississippi State University, priority 1992, dated 2002)
# Columns and labels:
# blackgrass = test: Test B preemergence/postemergence greenhouse plant response rating 0 to 10; type: in vivo, Alopecurus myosuroides; conditions: for Plant response rating, Blackgrass: POSTEMERGENCE, 0 to 10 scale
# Method in brief: (§1)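 Planted seeds are treated preemergence with compound dissolved in a non-phytotoxic solvent, while postemergence applications go onto plants of two to eighteen cm. Plants stay in the greenhouse twelve to sixteen days and are then rated visually relative to controls.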
# purple nutsedge = test: as above; type: in vivo, Cyperus rotundus; conditions: for Plant response rating, Nutsedge: 0 to 10 scale
# Method in brief: as §1
# wheat = test: Test C preemergence/postemergence greenhouse plant response rating 0 to 100; type: in vivo, Triticum aestivum; conditions: for Plant response rating, Wheat: 0 to 100 scale
# Excerpt: (§2) The compounds evaluated in this test were formulated in a non-phytoxic solvent and applied to the soil surface before plant seedlings emerged (preemergence application), to water that covered the soil surface (flood application), and to plants that were in the one-to-four leaf stage (postemergence application). A sandy loam soil was used for the preemergence and postemergence tests, while a silt loam soil was used in the flood test. Water depth was approximately 2.5 cm for the flood test and was maintained at this level for the duration of the test. Plant species in the preemergence and postemergence tests consisted of barley (Hordeum vulgare), bedstraw (Galium aparine), blackgrass (Alopecurus myosuroides), chickweed (Stellaria media), corn (Zea mays), cotton (Gossypium hirsutum), crabgrass (Digitaria sanguinalis), downy brome (Bromus tectorum), giant foxtail (Setaria faberii), lambsquarters (Chenopodium album), morningglory (Ipomoea hederacea), pigweed ([…]), rape (Brassica napus), ryegrass (Lolium multiflorum), sorghum (Sorghum bicolor), soybean (Glycine max), speedwell (Veronica persica), sugar beet (Beta vulgaris), velvetleaf (Abutilon theophrasti), wheat (Triticum aestivum), wild buckwheat (Polygonum convolvulus), and wild oat (Avena fatua). All plant species were planted one day before application of the compound for the preemergence portion-of this test. Plantings of these species were adjusted to produce plants of appropriate size for the post-emergence portion of the test. […] All plant species were grown using normal greenhouse practices. Visual evaluations of injury expressed on treated plants, when compared to untreated controls, were recorded approximately fourteen to twenty one days after application of the test compound. […] A dash (-) response means no test result.
# rape = test: Test B preemergence/postemergence greenhouse plant response rating 0 to 10; type: in vivo, Brassica napus; conditions: for Plant response rating, Rape: 0 to 10 scale
# Method in brief: as §1
# giant foxtail = test: as above; type: in vivo, Setaria faberii; conditions: for Plant response rating, Giant foxtail: 0 to 10 scale
# Method in brief: as §1
# corn = test: Test C preemergence/postemergence greenhouse plant response rating 0 to 100; type: in vivo, Zea mays; conditions: for Plant response rating, Corn: 0 to 100 scale
# Excerpt: as §2
# barnyardgrass = test: Test B preemergence/postemergence greenhouse plant response rating 0 to 10; type: in vivo, Echinochloa crus-galli; conditions: for Plant response rating, Barnyardgrass: 0 to 10 scale
# Method in brief: as §1
# rice = test: Test C flood test plant response rating 0 to 100; type: in vivo, Oryza sativa; conditions: for Plant response rating Rice Japonica: flood test species listed under POSTEMERGENCE, 0 to 100 scale
# Excerpt: as §2
# wild buckwheat = test: Test C preemergence/postemergence greenhouse plant response rating 0 to 100; type: in vivo, Polygonum convolvulus; conditions: for Plant response rating, Wild buckwheat: 0 to 100 scale
# Excerpt: as §2
# wild oat = test: as above; type: in vivo, Avena fatua; conditions: for Plant response rating, Wild oat: 0 to 100 scale
# Excerpt: as §2
# crabgrass = test: Test B preemergence/postemergence greenhouse plant response rating 0 to 10; type: in vivo, Digitaria spp.; conditions: for Plant response rating, Crabgrass: 0 to 10 scale
# Method in brief: as §1
# morningglory = test: Test C preemergence/postemergence greenhouse plant response rating 0 to 100; type: in vivo, Ipomoea hederacea; conditions: for Plant response rating, Morningglory: 0 to 100 scale
# Excerpt: as §2
smiles,measurement,setting,value
C#CC(C)Oc1cc(-c2nn3c(c2Br)CCCC3)c(F)cc1Cl (stereo not shown) [Compound 66],"Plant response rating, Blackgrass",blackgrass; Rate 50 g/ha,4
same,"Plant response rating (0 to 10 scale), Blackgrass","blackgrass; PREEMERGENCE, Rate 200 g/ha",7
same,"Plant response rating, Blackgrass",blackgrass; Rate 200 g/ha,6
same,"Plant response rating, Nutsedge","purple nutsedge; POSTEMERGENCE, Rate 50 g/ha",2
same,"Plant response rating, Nutsedge","purple nutsedge; PREEMERGENCE, Rate 50 g/ha",0
same,"Plant response rating (0 to 10 scale), Nutsedge","purple nutsedge; PREEMERGENCE, Rate 200 g/ha",0
same,"Plant response rating, Nutsedge","purple nutsedge; Rate 200 g/ha, POSTEMERGENCE",2
same,"Plant response rating, Wheat","wheat; POSTEMERGENCE, 62 g/ha",60
same,"Plant response rating, Wheat","wheat; POSTEMERGENCE, 250 g/ha",70
same,"Plant response rating (0 to 100), Wheat","wheat; POSTEMERGENCE, Rate 4 g/ha",20
same,"Plant response rating, Wheat","wheat; PREEMERGENCE, 250 g/ha",70
same,"Plant response rating (0 to 100), Wheat","wheat; PREEMERGENCE, Rate 4 g/ha",0
same,"Plant response rating (0 to 100), Wheat","wheat; Rate 16 g/ha, POSTEMERGENCE",40
same,"Plant response rating (0 to 100), Wheat","wheat; Rate 16 g/ha, PREEMERGENCE",0
same,"Plant response rating, Rape","rape; POSTEMERGENCE, Rate 50 g/ha",10
same,"Plant response rating, Rape","rape; PREEMERGENCE, Rate 50 g/ha",1
same,"Plant response rating (0 to 10 scale), Rape","rape; PREEMERGENCE, Rate 200 g/ha",5
same,"Plant response rating, Rape","rape; Rate 200 g/ha, POSTEMERGENCE",10
same,"Plant response rating, Giant foxtail","giant foxtail; POSTEMERGENCE, Rate 50 g/ha",7
same,"Plant response rating, Giant foxtail","giant foxtail; PREEMERGENCE, Rate 50 g/ha",0
same,"Plant response rating (0 to 10 scale), Giant foxtail","giant foxtail; PREEMERGENCE, Rate 200 g/ha",6
same,"Plant response rating, Giant foxtail","giant foxtail; Rate 200 g/ha, POSTEMERGENCE",6
same,"Plant response rating, Corn","corn; POSTEMERGENCE, 62 g/ha",40
same,"Plant response rating, Corn","corn; POSTEMERGENCE, 250 g/ha",60
same,"Plant response rating (0 to 100), Corn","corn; POSTEMERGENCE, Rate 4 g/ha",30
same,"Plant response rating, Corn","corn; PREEMERGENCE, 62 g/ha",0
same,"Plant response rating, Corn","corn; PREEMERGENCE, 250 g/ha",60
same,"Plant response rating (0 to 100), Corn","corn; PREEMERGENCE, Rate 4 g/ha",0
same,"Plant response rating (0 to 100), Corn","corn; Rate 16 g/ha, POSTEMERGENCE",30
same,"Plant response rating (0 to 100), Corn","corn; Rate 16 g/ha, PREEMERGENCE",0
same,"Plant response rating, Barnyardgrass","barnyardgrass; POSTEMERGENCE, Rate 50 g/ha",5
same,"Plant response rating, Barnyardgrass","barnyardgrass; PREEMERGENCE, Rate 50 g/ha",0
same,"Plant response rating (0 to 10 scale), Barnyardgrass","barnyardgrass; PREEMERGENCE, Rate 200 g/ha",7
same,"Plant response rating, Barnyardgrass","barnyardgrass; Rate 200 g/ha, POSTEMERGENCE",9
same,"Plant response rating (0 to 100), Rice Japonica","rice; POSTEMERGENCE section, flood test, Rate 4 g/ha",0
same,"Plant response rating (0 to 100), Rice Japonica","rice; Rate 16 g/ha, under POSTEMERGENCE head (flood test species)",0
same,Plant response rating Rice Japonica,rice; 62 g/ha,10
same,Plant response rating Rice Japonica,rice; 250 g/ha,25
same,"Plant response rating, Wild buckwheat","wild buckwheat; POSTEMERGENCE, 62 g/ha",100
same,"Plant response rating, Wild buckwheat","wild buckwheat; POSTEMERGENCE, 250 g/ha",100
same,"Plant response rating (0 to 100), Wild buckwheat","wild buckwheat; POSTEMERGENCE, Rate 4 g/ha",100
same,"Plant response rating, Wild buckwheat","wild buckwheat; PREEMERGENCE, 250 g/ha",100
same,"Plant response rating (0 to 100), Wild buckwheat","wild buckwheat; PREEMERGENCE, Rate 4 g/ha",0
same,"Plant response rating (0 to 100), Wild buckwheat","wild buckwheat; Rate 16 g/ha, POSTEMERGENCE",100
same,"Plant response rating (0 to 100), Wild buckwheat","wild buckwheat; Rate 16 g/ha, PREEMERGENCE",75
same,"Plant response rating, Wild oat","wild oat; POSTEMERGENCE, 62 g/ha",50
same,"Plant response rating, Wild oat","wild oat; POSTEMERGENCE, 250 g/ha",60
same,"Plant response rating (0 to 100), Wild oat","wild oat; POSTEMERGENCE, Rate 4 g/ha",10
same,"Plant response rating, Wild oat","wild oat; PREEMERGENCE, 250 g/ha",30
same,"Plant response rating (0 to 100), Wild oat","wild oat; PREEMERGENCE, Rate 4 g/ha",0
same,"Plant response rating (0 to 100), Wild oat","wild oat; Rate 16 g/ha, POSTEMERGENCE",20
same,"Plant response rating (0 to 100), Wild oat","wild oat; Rate 16 g/ha, PREEMERGENCE",0
same,"Plant response rating, Crabgrass","crabgrass; POSTEMERGENCE, Rate 50 g/ha",4
same,"Plant response rating, Crabgrass","crabgrass; PREEMERGENCE, Rate 50 g/ha",0
same,"Plant response rating (0 to 10 scale), Crabgrass","crabgrass; PREEMERGENCE, Rate 200 g/ha",3
same,"Plant response rating, Crabgrass","crabgrass; Rate 200 g/ha, POSTEMERGENCE",5
same,"Plant response rating, Morningglory","morningglory; POSTEMERGENCE, 62 g/ha",85
same,"Plant response rating, Morningglory","morningglory; POSTEMERGENCE, 250 g/ha",100
same,"Plant response rating (0 to 100), Morningglory","morningglory; POSTEMERGENCE, Rate 4 g/ha",50
same,"Plant response rating, Morningglory","morningglory; PREEMERGENCE, 62 g/ha",10
same,"Plant response rating, Morningglory","morningglory; PREEMERGENCE, 250 g/ha",60
same,"Plant response rating (0 to 100), Morningglory","morningglory; PREEMERGENCE, Rate 4 g/ha",0
same,"Plant response rating (0 to 100), Morningglory","morningglory; Rate 16 g/ha, POSTEMERGENCE",50
same,"Plant response rating (0 to 100), Morningglory","morningglory; Rate 16 g/ha, PREEMERGENCE",0
